Measured values taken from patent publication US7105524B2, “Pesticidal and parasiticidal di-and trifluorosubstituted alkene compounds” (BASF Aktiengesellschaft, priority 2001, dated 2006).

Experiments:
[1] = system: root-knot nematode Meloidogyne incognita; assay: Soil nematicide assay targeting root-knot nematode Meloidogyne incognita on tomato (soil drench); format: in vivo; details: tomato plants, one month after inoculation with 1000 J2 larvae
From the text: Soil nematicide assay targeting root-knot nematode Meloidogyne incognita on tomato The test compounds were solubilized in acetone and diluted with water and surfactant to the required test concentrations. The test solution was applied as a soil drench to transplanted tomato plants in cells with sandy loam mixed with sand. One thousand root-knot J2 larvae were applied as an aqueous suspension drenched on the soil surface. The plants were maintained in the greenhouse and, one month after inoculation, the plant roots were washed free of soil. The root-knot galls on the root system of each plant were counted. Treatments were replicated three times. Percent control of root-knot was calculated for the treated plants relative to control plants treated with the acetone-surfactant carrier using the following formula: % control of root knot galls=100×((median number of galls on control plants−median number of galls on treated plants)/median number of galls on control plants) In this test, compound A which is known from EP-A 1 000 946 as example 1 acted as comparison active ingredient.

[2] = system: root-knot nematode Meloidogyne sp; assay: Soil nematicide assay targeting root-knot nematode Meloidogyne sp on tomato (granular formulation); format: in vivo; details: 1 kg/ha, granular formulation of 5% active ingredient on gypsum carrier, infested soil, tomato plants, visual estimation
Method: Soil nematicide assay targeting root-knot nematode Meloidogyne sp on tomato
The test compounds were applied as granular formulations of 5% active ingredient on a gypsum carrier to soil infested with root-knot nematodes. Tomato plants were transplanted into the soil. After galling developed in untreated control plants, tomato plants were harvested and the roots assessed for root knot galling. Based on visual estimation, the percentage of the tomato root-mass that was galled was determined. Percent control root-knot was calculated for the treated plants relative to untreated control plants using the following formula: % control of root knot galling=100×((galling level of untreated plants−galling level of treated plants)/galling level of untreated plants)
In this test, compound A which is known from EP-A 1 000 946 as example 1 acted as comparison active ingredient.

SMILES | % control of root knot galls ([1]; 0.16 kg/ha) | % control of root knot galls ([1]; 0.63 kg/ha) | % control of root knot galling [2]
FC(F)=C(F)CCSc1nc2cccnc2s1 [I.1—1, 2-(3,4,4-Trifluoro-but-3-enylsulfanyl)-thiazolo[5,4-b]pyridine] | 94% | 100% | 47%
FC(F)=C(F)CCSc1nc2ncccc2s1 [compound A] | 13% | 71% | 25%
